27 compounds from PubChem BioAssay (NCI) can be followed below.

Several values for one entry are separate records, joined by “and”; a condition that tells them apart may be missing. Equal entries are not always repeated.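 Test compounds were applied to cells in 96-well plates for 48 hours at 5 doses. At the GI50, growth is halved. TGI is the concentration that stops growth completely.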

Assay in all cases: NCI tumour cell line growth inhibition, 48 h
The test system of test [1] is A498 renal.
In test [2] the test system is COLO 205 colon.
Test [3] relates to DLD-1 colon.
Test [4] relates to DMS 114 small cell lung.
Test [5] has as its system DMS 273 small cell lung.
For test [6], the system named is HCT-15 colon.
Test [7] has as its system HOP-62 NSCLC.
Test [8] relates to KM20L2 colon.
The subject of test [9] is LXFL 529 NSCLC.
For test [10], the system named is M19-MEL melanoma.
Test [11] has as its system SK-MEL-2 melanoma.
Test [12] has as its system XF 498 CNS.
The subject of test [13] is SNB-78 CNS.
In test [14] the test system is MDA-MB-435.

For `C[N+](C)(C)Cc1c(CC#N)[nH]c2ccccc12`, the TGI in test [1], in [2], in [3], in [4], in test [5] and in [6] was more than 100 µM each time. The TGI in test [7], in test [8], in test [9], in test [10], in test [11] and in test [12] was more than 100 µM throughout.

Consider `O=C1c2ccccc2C(=O)C2C3c4ccccc4C(c4ccccc43)C12` (centres undefined), for which the TGI is more than 100 µM in [2]; more than 100 µM in test [3]; 42.7 µM in test [4]; 39.4 µM in test [5]; more than 100 µM in test [6]; more than 100 µM in [7]. For the same compound, the TGI in test [8] is more than 100 µM; in test [9], 37.2 µM; in test [10], 40 µM; in [13], 51.3 µM.

Regarding `Cc1nc2c(n1CCC(C)C)C(=O)c1ccccc1C2=O`, the TGI is 30.8 µM in [2]; more than 100 µM in test [3]; 29.4 µM in test [5]; more than 100 µM in test [6]; 50.7 µM in [7]; more than 100 µM in [8]. The TGI in [9] was more than 100 µM; in [10], 28.5 µM; in test [11], 34.6 µM; in [13] it was more than 100 µM; in test [12], 36.4 µM.

As to `Cc1cc(N(CCC#N)CCC#N)ccc1/C(N=Nc1ccccc1)=N\NC(=O)c1ccccc1`, the TGI in [1] is 93.7 µM; in test [2], 53.6 µM; in [6], 48 µM; in test [7], more than 100 µM; in test [14], more than 100 µM; in test [11], more than 100 µM.

As to `c1ccc(/N=N\Nc2ccc(-c3nc4ccccc4o3)cc2)nc1`, the TGI in [1] is more than 100 µM; in [2] it was 49.2 µM; in [6], more than 100 µM; in test [7] it was more than 100 µM; in test [14] it was more than 100 µM; in [11] it was more than 100 µM.

For `O=C1c2ccccc2C(=O)c2c1oc(=O)c1ccccc21`, the TGI in [1] was more than 25 µM; in [2], 24.7 µM; in test [6], 7.5 µM; in test [7] it was 24.6 µM; in [14], 3.61 µM; in [11], 10.1 µM.

With `Clc1ccc2c(c1)CC1C[N+]3=C(CCCC3)C1=C2` (centres undefined), the TGI in test [1], in test [2], in test [6], in [7], in test [14] and in test [11] was more than 100 µM throughout.

With `c1nc(SSc2ncnc3nc[nH]c23)c2[nH]cnc2n1`, the TGI in [1] was more than 100 µM; in test [2] it was more than 100 µM; in [6] it was more than 100 µM; in [7], more than 100 µM; in test [14] it was more than 85.3 µM; in [11], more than 100 µM.

In the case of `O=C1C=CC[C@H](/C=C/C[C@@H](O)C[C@H](O)/C=C/c2ccccc2)O1`, the TGI in [1] is 27 µM; in [2], 20.4 µM; in test [6] it was 23 µM; in test [7], 30.9 µM; in [14] it was 23.4 µM; in test [11], 26.3 µM.

On to `COCC(=O)OC1CCn2c1nc1c2C(=O)C(C)=C(NC(C)=O)C1=N` (centres undefined), for which the TGI in test [1] stood at 32.9 µM; in test [2], 37.3 µM; in [6], 27.5 µM; in test [7], 29.2 µM; in test [14] it was 3.59 µM; in test [11] it was 6.09 µM.

On to `O=c1oc2cc(O)ccc2cc1-c1nc2ccccc2s1`, for which the TGI was 51.1 µM in [1]; 11 µM in test [2]; more than 100 µM in test [6]; 41.6 µM in [7]; 90.1 µM in [14]; 50.6 µM in test [11].

In the case of `Cc1ccc(S(=O)C[C@@]2(C(F)F)NC(=O)NC2=O)cc1` (some centres undefined), the TGI in [1], in [2], in [6], in [7], in test [14] and in test [11] was more than 100 µM each time.

On to `COc1cc(/C=C/c2sc3ccccc3[n+]2C)ccc1N(C)C`, for which the TGI in [1] was more than 100 µM; in [2], 2.76 µM and 2.86 µM; in [6], more than 100 µM; in test [7], 32.8 µM; in [14] it was 22.5 µM; in test [11] it was 8.31 µM and 29.3 µM. Moreover, the GI50 in test [14] is 10.2 µM; in test [11], 12.4 µM.

As to `O=Cc1[nH]c(=O)[nH]c(=O)c1CCl`, the TGI in [1], in [2], in test [6], in test [7], in test [14] and in test [11] was more than 100 µM throughout.

Turning to `COC(=O)c1cc(-c2ccc(-c3ccc(O)cc3)cc2)cc(-c2ccc(-c3ccc(O)cc3)cc2)c1`, the TGI in [1] was found to be 34.7 µM; in test [2], 31 µM; in test [6], 20.8 µM; in test [7], 27.7 µM; in [14], 24.9 µM; in [11], 33.7 µM.

On to `CC(=O)N1CC[N+](C)(CCCCN2c3ccccc3Sc3cc(N=[N+]=[N-])ccc32)CC1`, for which the TGI in test [1], in test [2], in test [6], in test [7], in [14] and in [11] was more than 100 µM in each case.

As to `c1cc2cc(c1)CN1CCNCCN(CCNCC1)Cc1cccc(c1)CN1CCNCCN(CCNCC1)C2`, the TGI in test [1], in [2], in test [6], in [7], in [14] and in test [11] was more than 100 µM in each case.

For `CC(=O)OCC1OC(n2c3c(cc(C#N)c2=S)CCCCCC3)C(OC(C)=O)C(OC(C)=O)C1OC(C)=O` (centres undefined), the TGI in [1], in [2], in [6], in [7], in test [14] and in [11] was more than 100 µM each time.

Take `N#CC(C#N)=Cc1ccc(C=C2SC3=C(SCCS3)S2)s1`: the TGI was 42.7 µM in [1]; more than 100 µM in [2]; more than 100 µM in [6]; more than 100 µM in test [7]; 7.37 µM in test [14]; more than 100 µM in test [11].

Take `O=c1[nH]c(=O)n(C2OC(CO)C(O)C2O)cc1OCCc1ccccc1` (centres undefined): the TGI in test [1], in test [2], in test [6], in test [7], in [14] and in test [11] was more than 100 µM in each case.

For `COc1ccc(C(=O)/C=C/c2ccc(OCC(=O)O)cc2)cc1`, the TGI in test [1], in [2], in [6], in test [7], in test [14] and in test [11] was more than 100 µM in each case.

Turning to `CCOC(=O)/C=C(\C(=O)OCC)n1cnc2c(N)ncnc21`, the TGI in [1] is 17.7 µM; in [2], 4.6 µM; in test [6] it was 12.2 µM; in test [7], 39.8 µM; in [14], 24.7 µM; in [11], 30.7 µM.

Consider `O=c1c[n+](-c2ccccc2)[nH]o1`, for which the TGI in [1], in test [2], in [6], in [7], in test [14] and in [11] was more than 100 µM each time.

For `C[C@@H]1OC(=O)C[C@H]2CC(=O)N(CCC3CN(S(=O)(=O)C(F)(F)F)c4ccc(Cc5ccc6c(c5)C(CCN5C[C@H]7[C@@H](CC(=O)O[C@H]7C)CC5=O)CN6S(=O)(=O)C(F)(F)F)cc43)C[C@@H]21` (some centres undefined), the TGI in [1], in [2], in test [6], in test [7], in test [14] and in test [11] was more than 100 µM in each case.

For the compound `O=C1OC2c3ccccc3C(=O)C2(c2ccccc2)N1c1ccccc1` (centres undefined), the TGI in [1], in test [2], in test [6], in [7], in test [14] and in test [11] was more than 200 µM each time.

Take `COc1ccc(/C=C(\C(=O)OCC(C)C)c2ccc(OC)c(OC)c2)cc1OC`: the TGI in [1], in [2], in [6], in test [7], in test [14] and in test [11] was more than 100 µM each time.

In the case of `COc1cc(C=Nc2ccc(S(N)(=O)=O)cc2)cc(OC)c1`, the TGI is more than 50 µM in [1]; more than 50 µM in test [2]; more than 50 µM in test [6]; more than 50 µM in test [7]; 49.3 µM in test [14]; more than 50 µM in [11].
